In patent publication US12364696B2, “Treatment of autoimmune disease” (priority 2019, dated 2025):
Like-named read-outs stand apart in the source and are kept apart here.

Assays:
[1] = tested on: folliculitis decalvans and tufted folliculitis; test: Additional case studies (data not shown); format: in vivo, human; settings: sublingual
[2] = tested on: patients with lichen planopilaris and frontal fibrosing alopecia; settings: for Patient-reported response: ceased treatment
[3] = Pharmacokinetics of sublingual tofacitinib, plasma LC MS/MS; format: in vivo, human; settings: for concentration at 24 h: other: sublingual
Experimental: Blood samples were left to coagulate at room temperature for 20 minutes before centrifuging at 3500 rotations per minute for 15 minutes. The resulting separated plasma was extracted and stored at −20 degrees Celsius prior to processing using the liquid chromatography tandem mass spectrometry (LC MS/MS) method.
The mobile phase consisted of (A) 5 mM ammonium acetate pH 4 and (B) methanol. The gradient profile developed was: 0-2.0 min, 90% A, 10% B; 2.0-3.0 min, 30% A, 70% B; 3.0-4.0 min, 90% A, 10% B. A Shimadzu LC MS/MS-8050 triple quadrupole mass spectrometer (Shimadzu, Kyoto, Japan) was used to perform the mass spectrometry. MS/MS analysis was performed in positive ion mode using electrospray ionization conditions.

[4] = tested on: male patients with alopecia areata of the beard (BAA)
[5] = tested on: patients with alopecia areata; settings: oral tofacitinib 5 mg twice daily for 6 months; cited from earlier work
[6] = tested on: patients with alopecia areata; settings: oral tofacitinib 5 mg twice daily for 3 months; cited from earlier work
[7] = oral tofacitinib; cited from earlier work
[8] = BAA subtype multiple patches, % of n = 45
[9] = BAA subtype solitary patch, % of n = 45
[10] = BAA subtype total beard loss, % of n = 45
[11] = all patients, n = 45 (21 oral, 24 sublingual)
[12] = degree of scalp hair regrowth Complete
[13] = degree of scalp hair regrowth Complete, % of n = 45
[14] = degree of scalp hair regrowth None
[15] = degree of scalp hair regrowth None, % of n = 45
[16] = degree of scalp hair regrowth Partial
[17] = degree of scalp hair regrowth Partial, % of n = 45

SMILES: C[C@@H]1CCN(C(=O)CC#N)C[C@@H]1N(C)c1ncnc2[nH]ccc12 [tofacitinib]
- Usefulness for treatment of folliculitis decalvans and tufted folliculitis [1]: useful
- Side effects ([2]; Patient 1): No side effects
- Activity of lichen planopilaris ([2]; Patient 1, sublingual 5-10 mg daily, July 2019 to February 2020, with concurrent medications): controlled
- Side effects ([2]; Patient 2): No side effects
- Symptoms of lichen planopilaris ([2]; Patient 2, up to 5 mg in the morning and 2.5 mg at night, with concurrent medications): symptom-free
- Patient-reported response ([2]; Patient 3, lichen planopilaris, 2 mg twice daily increased to 7.5 mg): not happy with the response
- Patient-reported response ([2]; Patient 4, lichen planopilaris/frontal fibrosing alopecia, 2.5 mg twice daily for 12 months): not happy with the response
- Effect on symptoms of lichen planopilaris and frontal fibrosing alopecia ([2]; series of case studies, sublingual): demonstrated activity at reducing the symptoms
- Number of patients who achieved tmax at 0.5 hour ([3]; Week 28, last dose, 15 patients): One
- Trace plasma levels prior to the last dose (range) ([3]; Week 28, pre-dose, 10 patient samples): 0.5 to 10.0 ng/mL
- half-life ([3]; human, plasma, 5 mg, sublingual, Week 28 (FIG. 5b), read-out: Estimated elimination half-life (plasma concentration halving from 29.14 ng/ml to 14.6 ng/ml) (converted)): ~11 h
- concentration at 24 h ([3]; human, plasma, 5 mg, Week 16, likely spuriously elevated by the nocte dose): 7.39 ng/mL
- concentration at 24 h ([3]; human, plasma, 5 mg, Week 28, no nocte dose): 0.28 ng/mL
- Tmax ([3]; human, plasma, sublingual, 5 mg tablet, read-out: Average time (tmax) to maximum plasma concentration): 1 h
- Cmax ([3]; human, plasma, sublingual, 5 mg tablet, read-out: Maximum plasma concentration (Cmax), average): 43.2 ng/mL
- Duration of treatment after which complete beard regrowth was achieved (mean) ([4]; 10 complete beard responders): 16.0 months
- Duration of treatment after which complete beard regrowth was achieved (range) ([4]; 10 complete beard responders): 5.0-28.0 months
- Men with complete beard regrowth who also achieved complete scalp hair regrowth ([4]; 10 complete beard responders): 60%
- Degree of beard regrowth Complete, number of patients ([4]; BAA subtype multiple patches): 7
- Degree of beard regrowth None, number of patients ([4]; BAA subtype multiple patches): 8
- Degree of beard regrowth Partial, number of patients ([4]; BAA subtype multiple patches): 9
- Degree of beard regrowth Complete, % of patients [4, 8]: 15.6%
- Degree of beard regrowth None, % of patients [4, 8]: 17.8%
- Degree of beard regrowth Partial, % of patients [4, 8]: 20.0%
- Degree of beard regrowth Complete, number of patients ([4]; BAA subtype solitary patch): 0
- Degree of beard regrowth None, number of patients ([4]; BAA subtype solitary patch): 2
- Degree of beard regrowth Partial, number of patients ([4]; BAA subtype solitary patch): 0
- Degree of beard regrowth Complete, % of patients [4, 9]: 0.0%
- Degree of beard regrowth None, % of patients [4, 9]: 4.5%
- Degree of beard regrowth Partial, % of patients [4, 9]: 0.0%
- Degree of beard regrowth Complete, number of patients ([4]; BAA subtype total beard loss): 3
- Degree of beard regrowth None, number of patients ([4]; BAA subtype total beard loss): 6
- Degree of beard regrowth Partial, number of patients ([4]; BAA subtype total beard loss): 10
- Degree of beard regrowth Complete, % of patients [4, 10]: 6.7%
- Degree of beard regrowth None, % of patients [4, 10]: 13.3%
- Degree of beard regrowth Partial, % of patients [4, 10]: 22.2%
- Degree of beard regrowth Complete, % of patients [4, 11]: 22.2%
- Degree of beard regrowth Complete, number of patients [4, 11]: Ten
- Degree of beard regrowth None, % of patients [4, 11]: 35.6%
- Degree of beard regrowth None, number of patients [4, 11]: 16
- Degree of beard regrowth Partial, % of patients [4, 11]: 42.2%
- Degree of beard regrowth Partial, number of patients [4, 11]: 19
- Degree of beard regrowth Complete, number of patients ([4]; all patients, n = 45 (21 oral, 24 sublingual), listed as oral tofacitinib): 10
- Degree of beard regrowth Complete, number of patients [4, 12]: 6
- Degree of beard regrowth None, number of patients [4, 12]: 0
- Degree of beard regrowth Partial, number of patients [4, 12]: 1
- Degree of beard regrowth Complete, % of patients [4, 13]: 13.3%
- Degree of beard regrowth None, % of patients [4, 13]: 0.0%
- Degree of beard regrowth Partial, % of patients [4, 13]: 2.2%
- Degree of beard regrowth Complete, number of patients [4, 14]: 1
- Degree of beard regrowth None, number of patients [4, 14]: 14
- Degree of beard regrowth Partial, number of patients [4, 14]: 3
- Degree of beard regrowth Complete, % of patients [4, 15]: 2.2%
- Degree of beard regrowth None, % of patients [4, 15]: 31.1%
- Degree of beard regrowth Partial, % of patients [4, 15]: 6.7%
- Degree of beard regrowth Complete, number of patients [4, 16]: 3
- Degree of beard regrowth None, number of patients [4, 16]: 2
- Degree of beard regrowth Partial, number of patients [4, 16]: 15
- Degree of beard regrowth Complete, % of patients [4, 17]: 6.7%
- Degree of beard regrowth None, % of patients [4, 17]: 4.5%
- Degree of beard regrowth Partial, % of patients [4, 17]: 33.3%
- Patients with mild adverse events (upper respiratory infections, elevated liver transaminases, fatigue, acne) ([4]; n = 45, oral or sublingual): 10
- Serious adverse events ([4]; n = 45, oral or sublingual): no serious adverse events
- SALT score post-tofacitinib, Mean ± SD ([4]; n = 45, oral or sublingual, pre-tofacitinib 62.0 ± 38.9): 41.7 ± 38.5
- SALT score post-tofacitinib, Median (Range) ([4]; n = 45, oral or sublingual, pre-tofacitinib 69.0 (2.0-100.0)): 29.0 (0.0-100.0)
- Complete response, number of patients ([4]; oral, N = 21, beard): 0
- No response, number of patients ([4]; oral, N = 21, beard): 9
- Partial response, number of patients ([4]; oral, N = 21, beard): 12
- Complete response, number of patients ([4]; sublingual, n = 24, beard): 10
- No response, number of patients ([4]; sublingual, n = 24, beard): 7
- Partial response, number of patients ([4]; sublingual, n = 24, beard): 7
- Response rate [5]: 64.9%
- Patients achieving a 50% or greater reduction in SALT score [6]: 32%
- Reported elimination half-life [7]: 3 h
